Measured values reported in ChEMBL document CHEMBL1154798, “Aminocaprophenone- and pyrrolidine-type alkaloids from the leaves of Ficus septica” (J Nat Prod, 2009).

How the values were obtained:
[1] = Cytotoxicity against human ACC-MESO1 cells after 48 hrs by WST8 colorimetric assay; type: functional, cell-based; details: ACC-MESO-1, 48 h
HeLa = experiment: Cytotoxicity against human HeLa cells after 48 hrs by WST8 colorimetric assay; type: functional, cell-based

SMILES	IC50 [1]	IC50 (HeLa)
COc1cc2c3c(c4cc(OC)c(OC)cc4c2cc1OC)CN1CCC[C@@H]1C3 [TYLOPHORINE]	12 µM	3.1 µM
CC(=O)c1ccc(O)c(O[C@@H]2O[C@H](CO)[C@@H](O)[C@H](O)[C@H]2O)c1 [PUNGENIN]	> 160 µM	> 160 µM
COc1ccc(C(=O)CCCCCN(C)C)cc1O [FICUSEPTAMINE B]	72 µM	23 µM
COc1cc(C(=O)CC2CCC[N+]2(C)C)ccc1O (stereo unspecified) [FICUSEPTAMINE C]	> 160 µM	> 160 µM
COc1ccc(C2=C(c3ccc(OC)c(OC)c3)CN3CCC[C@@H]3C2)cc1OC [SEPTICINE]	63 µM	38 µM
COc1cc2c3c(c4ccc(OC)c(OC)c4c2cc1OC)[C@H](O)[C@@H]1CCC[N+]1([O-])C3 (stereo partly specified)	28 µM	7.1 µM
COc1cc(C(=O)CCCCCN(C)C)ccc1O [FICUSEPTAMINE A]	160 µM	57 µM
COc1cc(C(=O)CC2CCCN2C)ccc1O (stereo unspecified) [PHYLLOSTERONE]	> 160 µM	> 160 µM
